Results as given in patent US20110195910A1, “USE OF TOCOTRIENOL COMPOSITION FOR THE PREVENTION OF CANCER” (DAVOS LIFE SCIENCE PTE. LTD., priority 2008, published 2011).

Assays:
MDA-MB-231 cells = assay: Flow cytometry, western blotting and RT-PCR, MDA-MB-231 cells; type: cell-based, human
Method: (§1) 1.1.3 Flow cytometry—Cell cycle distribution was examined using flow cytometry. Briefly, cells were harvested by trypsinization, fixed in 70% ethanol at 4° C. overnight, and then resuspended in PBS. After incubation at 4° C. for overnight, 2×10^6 cells were incubated with in 20 μg/ml propidium iodide (PI) and 2 mg RNaseA for 15 minutes at 37° C. Cells were then examined by BD SLRII cytometer and the results were analyzed using ModFit software (Becton Dickinson, Mountain View, Calif.). Data were expressed as the percentage of cell cycle distribution in the entire population.
(§2) 1.1.5 Western blotting—Detailed protocols have been described previously and are known in the art. Briefly, cell lysates were prepared by suspending cell pellets in lysis buffer [50 mmol/l Tris-HCl (pH 8.0), 150 mmol/l NaCl, 1% NP40, 0.5% deoxycholate, 0.1% SDS, 1 mg/ml aprotinin, 1 μg/ml leupeptin and 1 mmol/l phenylmethylsulfonyl fluoride]. For nuclear protein extraction, NucBuster™ protein extraction kit was used. Protein concentration was measured using the DC Protein Assay kit (Bio-Rad, Hercules, Calif.). Equal amount of protein (30 μg) was loaded onto a 10% SDS polyacrylamide gel for electrophoresis and then transferred onto a polyvinylidene difluoride membrane (Amersham, Piscataway, N.J.). The membrane was then incubated with primary antibodies for 1 hr at room temperature against E-cadherin (BD Biosciences, Bedford, Mass.), α-catenin, β-catenin, γ-catenin, Id-1, Id-3, EGFR, phosphor-c-jun, phosphor-ATF2, cleaved PARP, vimentin, α-smooth muscle actin, twist (Santa Cruz Biotechnology, Calif.), phosphor-IkB-alpha (Ser32/36), phosphor-IKK alpha (Seri 80)/IKK beta (Ser181), phosphor-SAPK/JNK (Thr183/Tyr185) G9, SAPK/JNK, NF-kB p65 (5A5) (Cell Signaling Technology Inc, Beverly, Mass.), Snail (Abcam). After incubation with appropriate secondary antibodies, signals were visualized by ECL western blotting system (Amersham, Piscataway, N.J.). Expression of β-actin and histone H1 were assessed as an internal loading control for total cell lysate and nuclear protein lysate respectively.
3.1.5 DNA fragmentation assay—After 24 hrs incubation with gamma-T3, 3×10^6 MDA-MB-231 cells were harvested and suspended in lysis buffer [5 mM Tris-HCl (pH 8.0), 20 mM EDTA, and 0.5% (v/v) Triton X-100] for 60 min on ice. Samples were centrifuged, the supernatants were removed and incubated with 5 μl RNase A (10 μg/ml) at 37° C. for 40 min, and 1 ml of anhydrous ethanol was added. Tubes were placed at […] for 20 min and then centrifuged to pellet the DNA. DNA samples were analyzed by electrophoresis at 80 V for 3 hrs on a 2% agarose gel containing ethidium bromide (0.2 μg/ml) and visualized under UV illumination.
3.1.6 Terminal deoxynucleotidyltransferase-mediated deoxyuridine triphosphate nick end-labelling (TUNEL) assay—DNA strand breaks during apoptosis was examined using in situ cell death detection reagent (Roche Applied Science). Briefly, 1×10^6 cells were pretreated with gamma-T3 for 24 hrs. Thereafter, cells were incubated with reaction mixture for 60 min at 37° C. Stained cells were analyzed and captured by fluorescence microscope on glass slide.
3.1.7 Flow cytometry was carried out as described above under item 1.1.3. Matrigel-invasion assay was carried out as described above under item 1.1.4. Western blotting was carried out as described above under item 1.1.5.
3.1.8 Id-1 RT-PCR—Total RNA was isolated using Trizol® reagent according to the manufacturer's protocol (Invitrogen). cDNA was synthesized using the SuperScript™ First Strand Synthesis System (Invitrogen) and was then amplified by PCR with Id-1 specific primers (forward primer, Id1-S, 5′-CTCCAGCACGTCATCGACTA-3′ and reverse primer, Id1-AS,5′-AAC GCA TGC CGC CTC-3′). PCR cycling protocol was as follows: 30 cycles of 10 min at 95° C., 30 s at 95° C., 30 s at 55° C., 1 min at 72° C. and 10 min at 72° C. Glyceraldehyde 3-phosphate dehydrogenase was amplified as an internal control. […]

G361 cells = assay: Western blotting of epithelial/mesenchymal markers, G361 cells; type: cell-based; conditions: G361, 24 hrs
Method: as §2, with “After incubation with appropriate secondary antibodies, signals were visualized by ECL western blotting system (Amersham, Piscataway, N.J.).” left out

PC-3 cells = assay: Flow cytometry and western blotting, PC-3 cells; type: cell-based, human
Method: as §1, §2
2.1.4 Flow cytometry was carried out as described above under item 1.1.3. Matrigel-invasion assay was carried out as described above under item 1.1.4. Western blotting was carried out as described above under item 1.1.5.

DU145 cells = assay: Spheroid formation assay, DU145 cells; type: cell-based
Method: 5.1.7 Spheroid formation assay—Spheroid formation assay was performed with a protocol modified from previous study (Folkins C, p3560). Briefly, cells were first trypsinized, washed with 1× PBS and resuspended in DMEM F12 medium. Two hundred cells were added into each well of a 24-well-plate pre-coated with polyHEMA (Sigma, St. Louis, Mo.). Cells will be grown in DMEM/F12 mem (Invitrogen, Carlsbad, Calif.) supplemented with 4 μg/mL insulin (Sigma, St. Louis, Mo.), B27 (Invitrogen, Carlsbad, Calif.), 20 ng/mL EGF (Sigma, St. Louis, Mo.), and 20 ng/mL basic FGF (Invitrogen, Carlsbad, Calif.). Fresh medium with the above supplements was added every day. γ-T3 was added at indicated time points and the number of spheroids was counted at day 14 of the assay or at the end of the treatment. Each experiment was repeated in triplicates and each data point represented the mean and standard derivation.

[1] = Serum-based toxicity assay; type: in vivo, C57BL/6 black mice; conditions: 5 dose i.p. injections per week containing 1 mg
Method: 4.1.8 Serum-based toxicity assay—Ten C57BL/6 black mice were given 5 dose intraperitoneal (i.p) injections per week containing 1 mg of γ-tocotrienol or DMSO blank. Mice were sacrificed by cardiac bleeding and the serum was extracted by method described above. Serum level of the biomarkers albumin, creatine, alanine transaminase ALT, aspartate aminotransferase AST, urea and alkaline phosphatase ALP were then measured by the colorimetric-based detection kits purchased from RANDOX laboratories Ltd. (Crumlin, United Kingdom).

CC(C)=CCC/C(C)=C/CC/C(C)=C/CCC1(C)CCc2cc(O)c(C)c(C)c2O1 (stereo not shown) [γ-T3, 7,8-dimethyltocotrienol]
JNK phosphorylation (MDA-MB-231 cells; MDA-MB-231): dose-dependent increase in JNK phosphorylation activities | Src phosphorylation, protein level of Smad1/5/8, LOX and activated Fak (MDA-MB-231 cells; MDA-MB-231): repressed in a dose dependent manner | expression of Snail and Twist (MDA-MB-231 cells; MDA-MB-231): downregulated | nuclear level of NF-κB p65 (MDA-MB-231 cells; MDA-MB-231): suppressed nuclear level of NF-κB p65 in a dose-dependent manner | MAPK/ERK pathway (phosphorylation of Erk1/2, Mek1/2 and Elk1) (MDA-MB-231 cells; MDA-MB-231, 24 hours): activated | activation of pro-apoptotic proteins (cleaved products) (MDA-MB-231 cells; MDA-MB-231, 24 hrs): activation of procaspase 3, 7, 8, 9 as well as PARP | Id1 and Id3 expressions (EGF-R similar) (MDA-MB-231 cells; MDA-MB-231, increasing dosages): significantly suppressed to almost undetectable level | sub-G1 cell population (flow cytometry) (MDA-MB-231 cells; gamma-T3 IC50-90, 24 hrs): induction of sub-G1 cell population | E-cadherin and γ-catenin protein expression (G361 cells): up-regulated | Snail and mesenchymal markers (vimentin, α-SMA and twist) expression (G361 cells): down-regulated | E-cadherin and γ-catenin protein expression (PC-3 cells; PC-3): up-regulated | JNK phosphorylation (PC-3 cells; PC-3): dosage- and time-dependent increase in JNK phosphorylation activities | NF-κB p65 activity (nuclear translocation) (PC-3 cells; PC-3): suppressed constitutive NF-κB p65 activity in a dose-dependent and time-dependent manner | Snail and mesenchymal markers (vimentin, α-SMA and twist) expression (PC-3 cells; PC-3, 24 hrs): down-regulated | activation of pro-apoptotic proteins (cleaved products) (PC-3 cells; PC-3, 24 hrs): activation of procaspase 3, 7, 8, 9 as well as PARP | EGF-R expression (Id-1 and Id-3 similar) (PC-3 cells; PC-3, increasing dosages): significantly suppressed to almost undetectable level | sub-G1 cell population (flow cytometry) (PC-3 cells; γ-T3 IC50-95, 24 hrs): induction of sub-G1 cell population | spheroid formation ability (DU145 cells): almost completely suppressed | toxicological changes in serum parameters (Alb, Cre, ALT, AST, Ure, ALP) [1]: no toxicological changes
